# Literature values as cited in patent US20080004295A1, “NOVEL COMPOUNDS” (priority 2005, published 2008).
# Tests used:
# [1] = system: PGD2; settings: dosed intranasally, phase I/II study, allergic rhinitis
# [2] = phase II clinical trial, allergic rhinitis
smiles,measurement,setting,value
Oc1cccc(Nc2ncc(F)c(Nc3cccc(O)c3)n2)c1 [Example R112],change in PGD2,[1],statistically significant decrease
same,safety across a range of indicators,[1],safe
same,efficacy versus placebo,[2],lack of efficacy
